Measurements from patent US20220348595A1, “COMPOUNDS AND METHODS FOR THE TARGETED DEGRADATION OF ESTROGEN RECEPTORS” (Endotarget Inc., priority 2021, published 2022).

Tests used:
Assay type in all cases: cell-based
ER = molecular target: T1, ER (Homo sapiens, UniProt P03372); assay: ER antagonism (T47D ERE luciferase), T47d-kb-Luc cells; settings: read-out: IC50 (ER antagonistm)
T1 construct: endogenous in cells; host or cells: T47d-kb-Luc (T47D stably transfected with a luciferase reporter gene only)
T1 sequence (P03372 1-595): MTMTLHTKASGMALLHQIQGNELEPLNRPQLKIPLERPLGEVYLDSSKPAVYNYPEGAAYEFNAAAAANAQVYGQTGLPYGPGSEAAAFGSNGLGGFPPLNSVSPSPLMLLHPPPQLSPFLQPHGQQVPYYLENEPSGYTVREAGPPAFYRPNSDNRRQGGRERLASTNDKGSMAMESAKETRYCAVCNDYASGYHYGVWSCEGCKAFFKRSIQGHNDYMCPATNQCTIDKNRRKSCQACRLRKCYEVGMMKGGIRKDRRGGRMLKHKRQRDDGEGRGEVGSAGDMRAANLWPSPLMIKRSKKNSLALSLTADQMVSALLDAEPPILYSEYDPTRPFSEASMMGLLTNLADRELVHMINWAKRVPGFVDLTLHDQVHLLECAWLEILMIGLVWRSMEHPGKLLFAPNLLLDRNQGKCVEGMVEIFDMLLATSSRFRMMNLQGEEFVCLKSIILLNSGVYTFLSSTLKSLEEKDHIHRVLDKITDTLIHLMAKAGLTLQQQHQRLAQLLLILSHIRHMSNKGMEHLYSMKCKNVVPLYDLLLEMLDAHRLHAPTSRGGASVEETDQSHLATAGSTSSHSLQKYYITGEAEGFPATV
Procedure: The Antiestrogenic Activity of the Exemplary Compounds was Assessed in T47d-kb-Luc Stably Transfected Human Breast Cancer Cell
Antagonist activities were measured by the compound's ability to inhibit the activity of estradiol, the natural estrogen. Data were then normalized relative to the activity of the estradiol control and determinations were performed for five concentrations of the samples in quadruplicate in at least three separate experiments.

[1] = system: MCF-7 breast cancer cells; assay: MCF-7 proliferation / cell viability assay; settings: Homo sapiens, MCF7; MCF-7 proliferation with 0.1 nM 17-beta estradiol; read-out: IC50 (anti-proliferation)
Procedure: The Anti-Proliferative Activities of the Exemplary Compounds were Assessed by a Cell Viability Assay in MCF-7 Breast Cancer Cells
MCF-7 cells were plated in six-well plates at a density of 50,000 each well in 5% FBS DMEM medium. The cells were then treated with exemplary compounds or fulvestrant separately at 6 different doses ranging from 10^−10 M to 10^−5 M for 5 days, while equal volumes of DMSO were used as vehicle controls. Viable cell numbers were counted with a Z Series Coulter Counter instrument (Beckman-Coulter) following manufacturer's instructions. The ratio of drug treated viable cell numbers to vehicle treated viable cell numbers was defined as survival ratio where the control has the survival ratio of 100%.

ERα = molecular target: T2, ERα (Homo sapiens, UniProt P03372); assay: ER degradation in MCF-7 cells (Western blot); settings: for DC50: ER degradation, 24 hours; for Dmax: MCF7, Maximal ER degradation, read-out: Dmax
T2 construct: endogenous in cells; host or cells: MCF-7
T2 sequence (P03372 1-595): T1 sequence (P03372 1-595)
Procedure: Degradation of ER in MCF-7 Breast Cancer Cells by Exemplary Compounds of the Present Disclosure
MCF-7 cells were plated in 24-well plates at a density of 10^5 cells/well. Media containing various drug concentrations were added on the day following plating (day 0) and allowed to incubate for 24 hours for Western blot. Media with the tested compound was changed every other day. Cells were lysed, snapped frozen in liquid nitrogen, and stored at −80° C. until assay for ERα. Media were removed and dishes were washed with 1× DPBS. Lysates were made by adding 150 μL of complete lysis solution and scraping cells into a 1.5 mL microcentrifuge tube. Lysates were placed on a rotisserie at 4° C. for 30 min and then spun at 4° C. at 12000 rcf for 10 min. Supernatants were assayed for protein content, snap-frozen, and stored a −80° C. if not run immediately. Then 50 μg of protein was subjected to Western blot protocol. Membranes were blocked and then incubated with 1:200 dilution of ERα antibody at 4° C. overnight followed by 1:10000 dilution of secondary antibody for 1 h at room temperature. They were then imaged on a LICOR infrared scanner.
FIGS. 1 to 10 show the ER degradation efficacy of compounds 3, 5, 9, 11, 12, 16, 18, 19, 20, 21, 23, 24, 25, 26, 27, 28, 29, 30, 31, 32, 33, 34, 37, 38, and 40 in MCF-7 cells at various concentrations. Degradation of ER was expressed as an DC50 value and was determined for exemplary compounds in Table 1 by calculation of the concentration of compound that was required to give a 50% reduction of ER expression level. Maximal degradation of ER was expressed as a Dmax value by measuring the highest percentage of ER reduction achieved by exemplary compound in the treatment concentration range.

SMILES	IC50 (ER)	IC50 [1]	DC50 (ERα)	Dmax (ERα)
CC/C(=C(/c1ccc(B(O)O)cc1)c1ccc(N2CCC(CNC3CCN(c4ccc5c(c4)C(=O)N(C4CCC(=O)NC4=O)C5)CC3)CC2)cc1)c1ccccc1 (stereo not shown) [Compound 14, (E)-(4-(1-(4-(4-(((1-(2-(2,6-dioxopiperidin-3-yl)-3-oxoisoindolin-5-yl)piperidin-4-yl)amino)methyl)piperidin-1-yl)phenyl)-2-phenylbut-1-en-1-yl)phenyl)boronic acid]	< 10 nM	< 10 nM	< 10 nM	> 90%
CC/C(=C(/c1ccc(OCCN2CCN(CCCNc3ccc4c(c3)C(=O)N(C3CCC(=O)NC3=O)C4=O)CC2)cc1)c1ccc(B(O)O)cc1)c1ccccc1 (stereo not shown) [Compound 15, (Z)-(4-(1-(4-(2-(4-(3-((2-(2,6-dioxopiperidin-3-yl)-1,3-dioxoisoindolin-5-yl)amino)propyl)piperazin-1-yl)ethoxy)phenyl)-2-phenylbut-1-en-1-yl)phenyl)boronic acid]	10 to 50 nM	10 to 50 nM	10 to 50 nM	> 75%
CC/C(=C(\c1ccc(OCCN2CCN(CCCNc3ccc4c(c3)C(=O)N(C3CCC(=O)NC3=O)C4=O)CC2)cc1)c1ccc(B(O)O)cc1)c1ccccc1 (stereo not shown) [Compound 16, (E)-(4-(1-(4-(2-(4-(3-((2-(2,6-dioxopiperidin-3-yl)-1,3-dioxoisoindolin-5-yl)amino)propyl)piperazin-1-yl)ethoxy)phenyl)-2-phenylbut-1-en-1-yl)phenyl)boronic acid]	10 to 50 nM	10 to 50 nM	10 to 50 nM	> 75%
CC/C(=C(/c1ccc(OCCN2CCN(CC3CCN(c4ccc5c(c4)C(=O)N(C4CCC(=O)NC4=O)C5=O)CC3)CC2)cc1)c1ccc(B(O)O)cc1)c1ccccc1 (stereo not shown) [Compound 17, (Z)-(4-(1-(4-(2-(4-((1-(2-(2,6-dioxopiperidin-3-yl)-1,3-dioxoisoindolin-5-yl)piperidin-4-yl)methyl)piperazin-1-yl)ethoxy)phenyl)-2-phenylbut-1-en-1-yl)phenyl)boronic acid]	10 to 50 nM	10 to 50 nM	< 10 nM	> 90%
CC/C(=C(/c1ccc(OCCN2CCC(CN3CCN(c4ccc5c(c4)C(=O)N(C4CCC(=O)NC4=O)C5=O)CC3)CC2)cc1)c1ccc(B(O)O)cc1)c1ccccc1 (stereo not shown) [Compound 19, (Z)-(4-(1-(4-(2-(4-((4-(2-(2,6-dioxopiperidin-3-yl)-1,3-dioxoisoindolin-5-yl)piperazin-1-yl)methyl)piperidin-1-yl)ethoxy)phenyl)-2-phenylbut-1-en-1-yl)phenyl)boronic acid]	> 50 nM	> 50 nM	10 to 50 nM	> 75%
CC/C(=C(\c1ccc(OCCN2CCC(CN3CCN(c4ccc5c(c4)C(=O)N(C4CCC(=O)NC4=O)C5=O)CC3)CC2)cc1)c1ccc(B(O)O)cc1)c1ccccc1 (stereo not shown) [Compound 20, (E)-(4-(1-(4-(2-(4-((4-(2-(2,6-dioxopiperidin-3-yl)-1,3-dioxoisoindolin-5-yl)piperazin-1-yl)methyl)piperidin-1-yl)ethoxy)phenyl)-2-phenylbut-1-en-1-yl)phenyl)boronic acid]	> 50 nM	> 50 nM	10 to 50 nM	> 75%
CC/C(=C(/c1ccc(OCCN2CCN(CC3CCN(c4ccc5c(c4)CN(C4CCC(=O)NC4=O)C5=O)CC3)CC2)cc1)c1ccc(B(O)O)cc1)c1ccccc1 (stereo not shown) [Compound 21, (Z)-(4-(1-(4-(2-(4-((1-(2-(2,6-dioxopiperidin-3-yl)-1-oxoisoindolin-5-yl)piperidin-4-yl)methyl)piperazin-1-yl)ethoxy)phenyl)-2-phenylbut-1-en-1-yl)phenyl)boronic acid]	< 10 nM	< 10 nM	< 10 nM	> 90%
CC/C(=C(\c1ccc(OCCN2CCN(CC3CCN(c4ccc5c(c4)CN(C4CCC(=O)NC4=O)C5=O)CC3)CC2)cc1)c1ccc(B(O)O)cc1)c1ccccc1 (stereo not shown) [Compound 22, (E)-(4-(1-(4-(2-(4-((1-(2-(2,6-dioxopiperidin-3-yl)-1-oxoisoindolin-5-yl)piperidin-4-yl)methyl)piperazin-1-yl)ethoxy)phenyl)-2-phenylbut-1-en-1-yl)phenyl)boronic acid]	< 10 nM	< 10 nM	< 10 nM	> 90%
CC/C(=C(/c1ccc(OCCN2CCN(CCN3CCN(c4ccc5c(c4)C(=O)N(C4CCC(=O)NC4=O)C5=O)CC3)CC2)cc1)c1ccc(B(O)O)cc1)c1ccccc1 (stereo not shown) [Compound 23, (Z)-(4-(1-(4-(2-(4-(2-(4-(2-(2,6-dioxopiperidin-3-yl)-1,3-dioxoisoindolin-5-yl)piperazin-1-yl)ethyl)piperazin-1-yl)ethoxy)phenyl)-2-phenylbut-1-en-1-yl)phenyl)boronic acid]	10 to 50 nM	10 to 50 nM	< 10 nM	> 90%
CC/C(=C(\c1ccc(OCCN2CCN(CCN3CCN(c4ccc5c(c4)C(=O)N(C4CCC(=O)NC4=O)C5=O)CC3)CC2)cc1)c1ccc(B(O)O)cc1)c1ccccc1 (stereo not shown) [Compound 24]	10 to 50 nM	10 to 50 nM	< 10 nM	> 90%
CC/C(=C(\c1ccc(OCCN2CCN(CCC3CCN(c4ccc5c(c4)C(=O)N(C4CCC(=O)NC4=O)C5=O)CC3)CC2)cc1)c1ccc(B(O)O)cc1)c1ccccc1 (stereo not shown) [Compound 26, (E)-(4-(1-(4-(2-(4-(2-(1-(2-(2,6-dioxopiperidin-3-yl)-1,3-dioxoisoindolin-5-yl)piperidin-4-yl)ethyl)piperazin-1-yl)ethoxy)phenyl)-2-phenylbut-1-en-1-yl)phenyl)boronic acid]	10 to 50 nM	10 to 50 nM	< 10 nM	> 90%
CC/C(=C(/c1ccc(OCCN2CCC(CCN3CCN(c4ccc5c(c4)C(=O)N(C4CCC(=O)NC4=O)C5=O)CC3)CC2)cc1)c1ccc(B(O)O)cc1)c1ccccc1 (stereo not shown) [Compound 27, (Z)-(4-(1-(4-(2-(4-(2-(4-(2-(2,6-dioxopiperidin-3-yl)-1,3-dioxoisoindolin-5-yl)piperazin-1-yl)ethyl)piperidin-1-yl)ethoxy)phenyl)-2-phenylbut-1-en-1-yl)phenyl)boronic acid]	> 50 nM	10 to 50 nM	< 10 nM	> 90%
CC/C(=C(\c1ccc(OCCN2CCC(CCN3CCN(c4ccc5c(c4)C(=O)N(C4CCC(=O)NC4=O)C5=O)CC3)CC2)cc1)c1ccc(B(O)O)cc1)c1ccccc1 (stereo not shown) [Compound 28, (E)-(4-(1-(4-(2-(4-(2-(4-(2-(2,6-dioxopiperidin-3-yl)-1,3-dioxoisoindolin-5-yl)piperazin-1-yl)ethyl)piperidin-1-yl)ethoxy)phenyl)-2-phenylbut-1-en-1-yl)phenyl)boronic acid]	> 50 nM	10 to 50 nM	< 10 nM	> 90%
